Laboratory results: the NIST ThermoML archive (doi:10.1021/acs.jced.7b00171)
Numbers after ± are expanded uncertainties.

Experiment: Solid-liquid equilibrium temperature
Conditions: Crystal 1, visual observation

Solid-liquid equilibrium temperature (1310 kPa): 280.31 ± 0.26 K | Solid-liquid equilibrium temperature (3430 kPa): 281.53 ± 0.34 K | Solid-liquid equilibrium temperature (5310 kPa): 282.52 ± 0.41 K
Compound: C1CCCCC1 [cyclohexane]
